Experimental data: PMC9516332 (Frontiers in Oncology, 2022)
Where two headings read alike, the source gives them in different places.

How the values were obtained:
134 cancer cell lines [1] = system: 134 cancer cell lines
[2] = target: panel of 255 wild-type kinases (Homo sapiens, UniProt O00311); assay: Kinase panel profiling at 1 µmol/L (MSA or IMAP), percentage inhibition; type: biochemical; conditions: CDC7/ASK kinase assay; 1 µmol/L single concentration; read-out: %-inhibition CDC7/ASK
[3] = target: panel of 255 wild-type kinases (Homo sapiens, UniProt P42684); assay: as above; type: biochemical; conditions: ARG kinase assay; 1 µmol/L single concentration; read-out: %-inhibition ARG
AP-1060 (ETV6-NTRK3) = assay: Cell viability assay; conditions: read-out: IC50 in cell proliferation assay
134 cancer cell lines [4] = assay: Cell viability assay (ATPlite, 72 hours), IC50 on cancer cell line panel

## FC(F)(F)c1ccc(CNc2ccc(Cc3c[nH]c4ncc(Cl)cc34)cn2)cn1 [pexidartinib]
134 cancer cell lines [1]
  IC50: > 31.6 µM
[2]
  inhibition at 1 µM: 0.521%
[3]
  inhibition at 1 µM: 7%
AP-1060 (ETV6-NTRK3)
  IC50: > 31.6 µM
134 cancer cell lines [4]; HEC-6, read-out: IC50 in cell proliferation assay, HEC-6 cell line (EGFR p.A289V)
  IC50: > 31.6 µM
134 cancer cell lines [4]; Homo sapiens, 769-P, read-out: IC50 in cell proliferation assay, cell line 769-P
  IC50: > 31.6 µM
134 cancer cell lines [4]; Homo sapiens, 786-0, read-out: IC50 in cell proliferation assay, cell line 786-O
  IC50: > 31.6 µM
134 cancer cell lines [4]; Homo sapiens, A 172, read-out: IC50 in cell proliferation assay, cell line A-172
  IC50: > 31.6 µM
134 cancer cell lines [4]; Homo sapiens, A204, read-out: IC50 in cell proliferation assay, cell line A-204
  IC50: 0.935 µM
134 cancer cell lines [4]; Homo sapiens, A498, read-out: IC50 in cell proliferation assay, cell line A-498
  IC50: > 31.6 µM
134 cancer cell lines [4]; Homo sapiens, A549, read-out: IC50 in cell proliferation assay, cell line A-549
  IC50: > 31.6 µM
134 cancer cell lines [4]; Homo sapiens, A704, read-out: IC50 in cell proliferation assay, cell line A-704
  IC50: > 31.6 µM
134 cancer cell lines [4]; Homo sapiens, A-375, read-out: IC50 in cell proliferation assay, cell line A-375 (BRAF p.V600E)
  IC50: > 31.6 µM
134 cancer cell lines [4]; Homo sapiens, A-427, read-out: IC50 in cell proliferation assay, cell line A-427
  IC50: 24.1 µM
134 cancer cell lines [4]; Homo sapiens, ACHN, read-out: IC50 in cell proliferation assay, cell line ACHN
  IC50: > 31.6 µM
134 cancer cell lines [4]; Homo sapiens, AN3-CA, read-out: IC50 in cell proliferation assay, cell line AN3-CA (FGFR2 p.N549K)
  IC50: 25.3 µM
134 cancer cell lines [4]; Homo sapiens, ASPC1, read-out: IC50 in cell proliferation assay, cell line AsPC-1
  IC50: > 31.6 µM
134 cancer cell lines [4]; Homo sapiens, AU565, read-out: IC50 in cell proliferation assay, cell line AU565 (ERBB2 amplification)
  IC50: 25.4 µM
134 cancer cell lines [4]; Homo sapiens, BT-20, read-out: IC50 in cell proliferation assay, cell line BT-20
  IC50: > 31.6 µM
134 cancer cell lines [4]; Homo sapiens, BT-474, read-out: IC50 in cell proliferation assay, cell line BT-474 (ERBB2 amplification)
  IC50: > 31.6 µM
134 cancer cell lines [4]; Homo sapiens, BT-549, read-out: IC50 in cell proliferation assay, cell line BT-549
  IC50: > 31.6 µM
134 cancer cell lines [4]; Homo sapiens, BXPC-3, read-out: IC50 in cell proliferation assay, cell line BxPC-3
  IC50: > 31.6 µM
134 cancer cell lines [4]; Homo sapiens, C-33-A, read-out: IC50 in cell proliferation assay, cell line C-33 A
  IC50: > 31.6 µM
134 cancer cell lines [4]; Homo sapiens, CAL-27, read-out: IC50 in cell proliferation assay, cell line CAL-27
  IC50: > 31.6 µM
134 cancer cell lines [4]; Homo sapiens, CCF-STTG1, read-out: IC50 in cell proliferation assay, cell line CCF-STTG1
  IC50: > 31.6 µM
134 cancer cell lines [4]; Homo sapiens, CCRF-CEM, read-out: IC50 in cell proliferation assay, cell line CCRF-CEM
  IC50: > 31.6 µM
134 cancer cell lines [4]; Homo sapiens, COLO 205, read-out: IC50 in cell proliferation assay, cell line COLO 205 (BRAF p.V600E)
  IC50: > 31.6 µM
134 cancer cell lines [4]; Homo sapiens, COLO-829, read-out: IC50 in cell proliferation assay, cell line COLO 829 (BRAF p.V600E)
  IC50: > 31.6 µM
134 cancer cell lines [4]; Homo sapiens, DLD-1, read-out: IC50 in cell proliferation assay, cell line DLD-1
  IC50: > 31.6 µM
134 cancer cell lines [4]; Homo sapiens, DU-4475, read-out: IC50 in cell proliferation assay, cell line DU4475 (BRAF p.V600E)
  IC50: > 31.6 µM
134 cancer cell lines [4]; Homo sapiens, Daoy, read-out: IC50 in cell proliferation assay, cell line Daoy
  IC50: > 31.6 µM
134 cancer cell lines [4]; Homo sapiens, DoTc2-4510, read-out: IC50 in cell proliferation assay, cell line DoTc2 4510
  IC50: > 31.6 µM
134 cancer cell lines [4]; Homo sapiens, EOL1, read-out: IC50 in cell proliferation assay, cell line EoL-1 (FIP1L1-PDGFRA)
  IC50: 0.01 µM
134 cancer cell lines [4]; Homo sapiens, FaDu, read-out: IC50 in cell proliferation assay, cell line FaDu
  IC50: > 31.6 µM
134 cancer cell lines [4]; Homo sapiens, G-361, read-out: IC50 in cell proliferation assay, cell line G-361 (BRAF p.V600E)
  IC50: 23.6 µM
134 cancer cell lines [4]; Homo sapiens, HCC827, read-out: IC50 in cell proliferation assay, cell line HCC827 (EGFR exon19del)
  IC50: > 31.6 µM
134 cancer cell lines [4]; Homo sapiens, HCC4006, read-out: IC50 in cell proliferation assay, cell line HCC4006 (EGFR exon19del)
  IC50: > 31.6 µM
134 cancer cell lines [4]; Homo sapiens, HCT-15, read-out: IC50 in cell proliferation assay, cell line HCT 15
  IC50: > 31.6 µM
134 cancer cell lines [4]; Homo sapiens, HCT-116, read-out: IC50 in cell proliferation assay, cell line HCT 116
  IC50: > 31.6 µM
134 cancer cell lines [4]; Homo sapiens, HEC-1, read-out: IC50 in cell proliferation assay, HEC-1 cell line
  IC50: > 31.6 µM
134 cancer cell lines [4]; Homo sapiens, HEC-1B, read-out: IC50 in cell proliferation assay, HEC-1-B cell line (EGFR p.A864V)
  IC50: > 31.6 µM
134 cancer cell lines [4]; Homo sapiens, HL-60, read-out: IC50 in cell proliferation assay, HL-60 cell line
  IC50: > 31.6 µM
134 cancer cell lines [4]; Homo sapiens, HT, read-out: IC50 in cell proliferation assay, HT cell line
  IC50: > 31.6 µM
134 cancer cell lines [4]; Homo sapiens, HT-1080, read-out: IC50 in cell proliferation assay, HT-1080 cell line
  IC50: > 31.6 µM
134 cancer cell lines [4]; Homo sapiens, Hs746T, read-out: IC50 in cell proliferation assay, Hs 746.T cell line (MET exon14skip + amplification)
  IC50: > 31.6 µM
134 cancer cell lines [4]; Homo sapiens, Hs-578T, read-out: IC50 in cell proliferation assay, Hs 578T cell line
  IC50: 25.7 µM
134 cancer cell lines [4]; Homo sapiens, HuTu80, read-out: IC50 in cell proliferation assay, HuTu 80 cell line
  IC50: 22.8 µM
134 cancer cell lines [4]; Homo sapiens, J82, read-out: IC50 in cell proliferation assay, J82 cell line
  IC50: > 31.6 µM
134 cancer cell lines [4]; Homo sapiens, Jurkat E6.1, read-out: IC50 in cell proliferation assay, Jurkat E6.1 cell line
  IC50: > 31.6 µM
134 cancer cell lines [4]; Homo sapiens, K562, read-out: IC50 in cell proliferation assay, K-562 cell line
  IC50: > 31.6 µM
134 cancer cell lines [4]; Homo sapiens, KATO III, read-out: IC50 in cell proliferation assay, KATO III cell line (FGFR2 amplification)
  IC50: 10.1 µM
134 cancer cell lines [4]; Homo sapiens, KG-1, read-out: IC50 in cell proliferation assay, KG-1 cell line (FGFR1OP2-FGFR1)
  IC50: 7.51 µM
134 cancer cell lines [4]; Homo sapiens, KLE, read-out: IC50 in cell proliferation assay, KLE cell line
  IC50: > 31.6 µM
134 cancer cell lines [4]; Homo sapiens, KMS-11, read-out: IC50 in cell proliferation assay, KMS-11 cell line (FGFR3 p.Y373C)
  IC50: > 31.6 µM
134 cancer cell lines [4]; Homo sapiens, KU812, read-out: IC50 in cell proliferation assay, Ku812 cell line
  IC50: > 31.6 µM
134 cancer cell lines [4]; Homo sapiens, Kasumi 1, read-out: IC50 in cell proliferation assay, Kasumi-1 cell line (KIT p.N822K)
  IC50: 0.228 µM
134 cancer cell lines [4]; Homo sapiens, LC-2-ad, read-out: IC50 in cell proliferation assay, LC-2/ad cell line (CCDC6-RET)
  IC50: > 31.6 µM
134 cancer cell lines [4]; Homo sapiens, LNCaP-Clone-FGC, read-out: IC50 in cell proliferation assay, LNCaP clone FGC cell line
  IC50: > 31.6 µM
134 cancer cell lines [4]; Homo sapiens, LS174T, read-out: IC50 in cell proliferation assay, LS174T cell line
  IC50: > 31.6 µM
134 cancer cell lines [4]; Homo sapiens, LS-411N, read-out: IC50 in cell proliferation assay, LS411N cell line (BRAF p.V600E)
  IC50: > 31.6 µM
134 cancer cell lines [4]; Homo sapiens, LoVo, read-out: IC50 in cell proliferation assay, LoVo cell line
  IC50: > 31.6 µM
134 cancer cell lines [4]; Homo sapiens, MCF7, read-out: IC50 in cell proliferation assay, MCF-7 cell line
  IC50: 18.1 µM
134 cancer cell lines [4]; Homo sapiens, MDA-MB-231, read-out: IC50 in cell proliferation assay, MDA-MB-231 cell line
  IC50: > 31.6 µM
134 cancer cell lines [4]; Homo sapiens, MDA-MB-453, read-out: IC50 in cell proliferation assay, MDA-MB-453 cell line
  IC50: > 31.6 µM
134 cancer cell lines [4]; Homo sapiens, MDA-MB-468, read-out: IC50 in cell proliferation assay, MDA-MB-468 cell line
  IC50: > 31.6 µM
134 cancer cell lines [4]; Homo sapiens, MG-63, read-out: IC50 in cell proliferation assay, MG-63 cell line
  IC50: > 31.6 µM
134 cancer cell lines [4]; Homo sapiens, MIA PaCa-2, read-out: IC50 in cell proliferation assay, MIA PaCa-2 cell line
  IC50: > 31.6 µM
134 cancer cell lines [4]; Homo sapiens, MKN-45, read-out: IC50 in cell proliferation assay, MKN45 cell line (MET amplification)
  IC50: > 31.6 µM
